Structures are written as SMILES. Read-outs that look alike come from different tables or passages of the source. Some results are limits rather than exact numbers.

Data set [1] concerns P. falciparum D6 (chloroquine sensitive) strain. The experiment in a line: microbe, parasite or virus in culture. The format is cell-based, Plasmodium falciparum. The note with it: for Chloroquine-Sensitive (D6)-Strain S. I.: selectivity index = IC50 for cytotoxicity (Vero)/IC50 for antiplasmodial activity; for IC50: Plasmodium falciparum.
For data set [2], the system named is Vero cells (mammalian kidney fibroblasts). The data set can be described thus: in vitro. It counts as cell-based. The note with it: highest concentration tested […].
For data set [3], the system named is P. falciparum W2 (chloroquine resistant) strain. The data set can be described thus: microbe, parasite or virus in culture. The format is cell-based, Plasmodium falciparum. Conditions: for Chloroquine-Resistant (W2)-Strain S. I.: selectivity index = IC50 for cytotoxicity (Vero)/IC50 for antiplasmodial activity; for IC50: Plasmodium falciparum.
For data set [4], the system named is P. berghei (NK-65 strain). The data set can be described thus: In vivo antimalarial assay in mice infected with P. berghei. The note with it: for Day of Death (post infection): one value per animal; for % Parasitemia Suppression Day 5 / % Parasitemia Suppression Day 7: vehicle control = 100% parasitemia, < 80% non-significant. Also noted: species or system mice (Swiss Webster). As to the method:
The protocol for in vivo antimalarial evaluation was approved by the University of Mississippi Institutional Animal Care and Use Committee (IACUC). The in vivo antimalarial activity was determined in mice infected with P. berghei (NK-65 strain). Male mice (Swiss Webster strain) weighing 18-20 g were intraperitoneally inoculated with 2 × 10^7 parasitized red blood cells obtained from a highly infected donor mouse. Mice were divided into different groups with five mice in each group. Compound stocks were prepared in DMSO and administered orally to the mice through gavage two hours after the infection (day 0). The animals were treated once daily for consecutive days (day 0 to 2) and were closely observed for at least 2 h after every dose for any apparent signs of toxicity. Blood smears were prepared on different days starting from 5 days post infection (through 28 days) by clipping the tail end, stained with Giemsa, and the slides were observed under microscope for determination of parasitemia. Mice without parasitemia through day 28 postinfection were considered as cured. Also, suppression in development of parasitemia was computed by comparing the parasitemia in the control vehicle treated group and groups treated with compound. The mean survival time was also computed for control and treated groups. The results are presented as parasitemia suppression of day 5 post treatment, mean survival time of mice in each group, cure and survival graphs computed by Prism 6.0. (San Diego, CA, USA).

The nature of data set [5]: in vitro. The format is cell-based, pig. The note with it: pig; concentration causing 50% growth inhibition; read-out: Cytotoxic activity IC50, LLC-PK11. The procedure: (§1) In vitro cytotoxicity was determined against a panel of mammalian cells that included kidney fibroblast (Vero), kidney epithelial (LLC-PK11), malignant melanoma (SK-MEL), oral epidermal carcinoma (KB), breast ductal carcinoma (BT-549), and ovary carcinoma (SK-OV-3) cells Doxorubicin was used as a positive control.

The subject of data set [6] is lettuce (Lactuca sativa cv. L., Iceberg). The data set can be described thus: In vitro phytotoxicity assay, lettuce. Conditions: 1 mg/mL; 10% acetone; scale of 0 to 5, 0 = no effect, 5 = no growth. The procedure: (§2) Herbicidal or phytotoxic activity of the extract and compounds was performed according to the published procedure using bentgrass (Agrostis stolonifera) and lettuce (Lactuca sativa cv. L., Iceberg), in 24-well plates. Phytotoxicity was ranked visually. The ranking of phytotoxic activity was based on a scale of 0 to 5 with 0 showing no effect and 5 no growth.

A short description of data set [7]: in vitro. The format is cell-based, human. Conditions: human, concentration causing 50% growth inhibition. The procedure: as §1
The nature of data set [8]: in vitro. The format is cell-based. The note with it: African green monkey.
Data set [9] has as its system bentgrass (Agrostis stolonifera). The data set can be described thus: In vitro phytotoxicity assay, bentgrass. Conditions: 1 mg/mL; 10% acetone; scale of 0 to 5, 0 = no effect, 5 = no growth. The procedure:
as §2

For data set [10] the following is noted: intraperitoneal, subcutaneous, or intravenous injections up to 100 mg/kg/day; cited from earlier work.
The test system of data set [11] is LLC-PK11 (pig kidney epithelial). The data set can be described thus: in vitro. Conditions: concentration causing 50% growth inhibition; read-out: Cytotoxic activity IC50, LLC-PK11. It counts as cell-based. The procedure:
as §1

In data set [12] the test system is BT-549 (human breast carcinoma, ductal). The data set can be described thus: in vitro. The note with it: concentration causing 50% growth inhibition; read-out: Cytotoxic activity IC50, BT-549. The format is cell-based. The procedure:
as §1

Data set [13] deals with SK-MEL (human malignant melanoma). The data set can be described thus: in vitro. It counts as cell-based. Conditions: concentration causing 50% growth inhibition; read-out: Cytotoxic activity IC50, SK-MEL. As to the method: as §1
For data set [14], the system named is KB (human epidermal carcinoma). The experiment in a line: in vitro. It counts as cell-based. Conditions: concentration causing 50% growth inhibition; read-out: Cytotoxic activity IC50, KB. As to the method: as §1
In data set [15] the test system is SK-OV-3 (human ovary carcinoma). The data set can be described thus: in vitro. The format is cell-based. Conditions: concentration causing 50% growth inhibition; read-out: Cytotoxic activity IC50, SK-OV-3. As to the method:
as §1

[16] abbreviates: PO, 100 mg/kg × 3 days, P. berghei.
The mark [17] stands for this setting: W2, read-out: Chloroquine-Resistant (W2)-Strain IC50.
Where [18] appears, read: W2, read-out: Chloroquine-Resistant (W2)-Strain IC50 (ng/mL).
The mark [19] stands for this setting: P. falciparum D6, read-out: Chloroquine-Sensitive (D6)-Strain IC50.
The mark [20] stands for this setting: P. falciparum D6, read-out: Chloroquine-Sensitive (D6)-Strain IC50 (ng/mL).
[21] abbreviates: read-out: Cytotoxic activity IC50, BT-549.
The mark [22] stands for this setting: read-out: Cytotoxic activity IC50, KB.
Setting [23] is: read-out: Cytotoxic activity IC50, SK-MEL.
The mark [24] stands for this setting: read-out: Cytotoxic activity IC50, SK-OV-3.
[25] abbreviates: highest concentration tested […], read-out: Cytotoxicity to Vero Cells IC50.
Where [26] appears, read: read-out: Cytotoxicity to Vero cells.

With `C[C@@H]1CC[C@H]2[C@@H](C)C(=O)O[C@@H]3O[C@@]4(C)CC[C@@H]1[C@]32OO4` [Artemisinin, reference compound], in [1], the “Chloroquine-Sensitive (D6)-Strain S. I.” value is reported as over 850. For the same compound, the “Cytotoxicity to Vero Cells IC50” value in [2] is on record as “NC (not cytotoxic at the highest concentration tested (4760 ng/mL))”. Further, the “Chloroquine-Resistant (W2)-Strain S. I.” value in data set [3] is over 1586.6.

On to `CCN(CC)CCCC(C)Nc1ccnc2cc(Cl)ccc12` (stereo not drawn) [Chloroquine, reference compound], for which the IC50 in [1] (D6, read-out: Chloroquine-Sensitive (D6)-Strain IC50) turned out to be 30 nM. The IC50 in data set [1] (D6, read-out: Chloroquine-Sensitive (D6)-Strain IC50 (ng/mL)) came out at 16 ng/mL. In data set [4] (setting [16]), the “Cure (mice without parasitemia till day 28 post-infection)” value is given as 2/5, the “MST (mean survival time)” value is 28 days, the “Survival (animals that survived day 28/total animals in group)” value is reported as 5/5 and the “Day of Death (post infection)” value was 28/28/28/28/28. In addition, in [4] (setting [16]), the “% Parasitemia Suppression Day 5” value came to 100% and the “% Parasitemia Suppression Day 7” value is 100%. The “Cytotoxicity to Vero Cells IC50” value in data set [2] is “NC (not cytotoxic at the highest concentration tested (4760 ng/mL))”. Further, the IC50 in data set [3] (setting [17]) turned out to be 310 nM. Besides, the IC50 in data set [3] (setting [18]) worked out at 160 ng/mL.

For `CC(=O)OC1C2OC2C(C)(O)C(=O)C(C)CC=CC2C(O)C(C)=C(C)C3C(Cc4ccccc4)NC(=O)C213` [Compound 1, (3S,4R,7S,8S,9R,16S,18R,19R,20S,21S)-19,20-epoxycytochalasin C], the IC50 in the data set “in vitro [5]” is over 10000 nM; in data set [1] (setting [19]) it was 70 nM; in data set [1] (setting [20]), 37 ng/mL; in “in vitro [7]” (setting [21]) it was over 10000 nM; in the data set “in vitro [7]” (setting [22]), over 10000 nM; in “in vitro [7]” (setting [23]) it was 8020 nM. Further, the IC50 was over 10000 nM in “in vitro [7]” (setting [24]); over 4.76 µg/mL in “in vitro [8]” (setting [25]); over 4.76 µg/mL in “in vitro [8]” (setting [26]); 50 nM in [3] (setting [17]); 28 ng/mL in [3] (setting [18]). Further, the “Phytotoxic activity, Lettuce (ranking)” value in data set [6] is given as 3. Moreover, the “Chloroquine-Sensitive (D6)-Strain S. I.” value in data set [1] is over 128.6. Besides, the “MST (mean survival time)” value in data set [4] (setting [16]) is reported as 5.2 days. Also, the “Survival (animals that survived day 28/total animals in group)” value in [4] (setting [16]) was 0/5. In [4] (setting [16]), the “Day of Death (post infection)” value is recorded as 17/5/3/1/0. The “% Parasitemia Suppression Day 5” value in data set [4] (setting [16]) was 33.9%. In addition, the “% Parasitemia Suppression Day 7” value in [4] (setting [16]) is 71.4%. The “Animals that died due to drug induced toxicity” value in data set [4] (oral, 100 mg/kg/day for 3 days) is reported as “Three out of 5”. Besides, the “Phytotoxic activity, Bentgrass (ranking)” value in data set [9] was found to be 2. In data set [3], the “Chloroquine-Resistant (W2)-Strain S. I.” value is on record as over 170.

With `C=C1C(C)C2C(Cc3ccccc3)NC(=O)C23C(C=CCC(C)C(=O)C(C)(O)C2OC2C3OC(C)=O)C1O` [Compound 2, (3S,4R,5S,7S,8S,9R,16S,18R,19R,20S,21S)-19,20-epoxycytochalasin D], the IC50 is 8400 nM in “in vitro [5]”; 40 nM in data set [1] (setting [19]); 22 ng/mL in data set [1] (setting [20]); 7840 nM in “in vitro [7]” (setting [21]); over 10000 nM in the data set “in vitro [7]” (setting [22]); over 10000 nM in “in vitro [7]” (setting [23]). Moreover, the IC50 is over 10000 nM in “in vitro [7]” (setting [24]); over 4.76 µg/mL in the data set “in vitro [8]” (setting [25]); over 4.76 µg/mL in the data set “in vitro [8]” (setting [26]); 40 nM in [3] (setting [17]); 20 ng/mL in [3] (setting [18]). In addition, the “Phytotoxic activity, Lettuce (ranking)” value in data set [6] turned out to be 3. The “Chloroquine-Sensitive (D6)-Strain S. I.” value in [1] is recorded as over 216.3. Further, the “Phytotoxic activity, Bentgrass (ranking)” value in [9] was 3. Besides, the “Chloroquine-Resistant (W2)-Strain S. I.” value in data set [3] was over 238.

For `CC(=O)OC1C2OC2C(C)C(=O)C(C)CC=CC2C(O)C(C)=C(C)C3C(Cc4ccccc4)NC(=O)C213` [Compound 3, (3S,4R,7S,8S,9R,16(S),18S,19S,20R,21S)-18-deoxy-19,20-epoxycytochalasin C], the IC50 was over 10000 nM in the data set “in vitro [5]”; 560 nM in [1] (setting [19]); 280 ng/mL in [1] (setting [20]); 6890 nM in “in vitro [7]” (setting [21]); over 10000 nM in “in vitro [7]” (setting [22]); over 10000 nM in the data set “in vitro [7]” (setting [23]). Besides, the IC50 in the data set “in vitro [7]” (setting [24]) was over 10000 nM; in “in vitro [8]” (setting [25]), over 4.76 µg/mL; in data set [3] (setting [17]), 190 nM; in data set [3] (setting [18]), 100 ng/mL. Also, the “Phytotoxic activity, Lettuce (ranking)” value in data set [6] came out at 3. Further, the “Chloroquine-Sensitive (D6)-Strain S. I.” value in [1] is listed as over 17. For the same compound, in data set [9], the “Phytotoxic activity, Bentgrass (ranking)” value was 4. For the same compound, in data set [3], the “Chloroquine-Resistant (W2)-Strain S. I.” value is listed as over 47.6.

For `C=C1[C@@H](C)[C@H]2[C@H](Cc3ccccc3)NC(=O)[C@]23OC(=O)/C=C/[C@H](O)CCC[C@@H](C)C/C=C/[C@H]3[C@@H]1O` [Cytochalasin B], in data set [10], the “Toxicity in animal models at therapeutic doses” value (shortened to “Toxicity in animal models”) was “no toxicity”.

Take `C=C1[C@@H](C)[C@H]2[C@H](Cc3ccccc3)NC(=O)[C@]23[C@H](OC(C)=O)/C=C/[C@@](C)(O)C(=O)[C@@H](C)C/C=C/[C@H]3[C@@H]1O` [Cytochalasin D]: the “Toxicity in animal models” value in data set [10] is recorded as “no toxicity”.

With `C[C@H]1C/C=C/[C@H]2[C@@H]3O[C@]3(C)[C@@H](C)[C@H]3[C@H](Cc4ccccc4)NC(=O)[C@]32OC(=O)O/C=C/[C@@](C)(O)C1=O` [Cytochalasin E], in data set [10], the “Toxicity in animal models” value was “no toxicity”.

As for `COc1cccc2c1C(=O)c1c(O)c3c(c(O)c1C2=O)C[C@@](O)(C(=O)CO)C[C@@H]3O[C@H]1C[C@H](N)[C@H](O)[C@H](C)O1` [Doxorubicin, reference compound], the IC50 in data set [11] was found to be 1280 nM; in data set [12], 1830 nM; in [13], 1290 nM; in data set [14] it was 2120 nM; in data set [15] it was 1470 nM.

The values above are taken from paper PMC6413121, “Antiplasmodial and Cytotoxic Cytochalasins from an Endophytic Fungus, Nemania sp. UM10M, Isolated from a Diseased Torreya taxifolia Leaf” (Molecules, 2019).
